# Test results as given in ChEMBL document CHEMBL4699579, “A Peptidyl Inhibitor that Blocks Calcineurin-NFAT Interaction and Prevents Acute Lung Injury” (J Med Chem, 2020).
# Starred links: 1 amine or outer side, 2 acyl side, 3 side chain; linkers in the order of their positions; H or OH if unused. Non-standard residues stand in square brackets, D forms with d. Residues, ends and D or L forms follow the SMILES beside them. *: point of attachment. X5 = O=C(O)c1cc(NC(=S)*)ccc1-c1c2ccc(=O)cc-2oc2cc(O)ccc12; Benzoyl(2,3,4,5,6-F5) = O=C(c1c(F)c(F)c(F)c(F)c1F)*; Benzoyl(2,3-Cl2) = O=C(c1cccc(Cl)c1Cl)*; X3 = CC1(C)SC[C@@H](C(=O)[*:2])N1[*:1]; Cyclohexanecarbonyl = O=C(C1CCCCC1)*; Cyclopentanecarbonyl = O=C(C1CCCC1)*; X7 = O=C(c1cc(F)c(F)c(F)c1F)*; Tle = CC(C)(C)[C@H](N)C(=O)O; X4 = O=C(c1ccc(Br)c(Cl)c1)*; X6 = Cc1ccc(C(=O)*)c(F)c1F; AEEA = NCCOCCOCC(=O)O; Bz = O=C(c1ccccc1)*; βAla = NCCC(=O)O; For = O=C*
# Test: Binding affinity to GST-tagged Calcineurin (unknown origin) incubated for 1 hr by fluorescence polarization assay
# Parameters: species or system Homo sapiens
row,Kd,Compound
1,22 nM,CC[C@H](C)[C@H](NC(=O)[C@@H](NC(=O)c1cccc(Cl)c1Cl)C(C)(C)C)C(=O)N[C@H](C(=O)N[C@H](C(=O)N[C@H](C(=O)N[C@@H](CC(=O)O)C(=O)N[C@@H](CCC(N)=O)C(=O)N[C@@H](Cc1ccc(O)cc1)C(=O)N[C@H](CCCCN)C(=O)NCCC(=O)N[C@@H](CCCCNC(=S)Nc1ccc(-c2c3ccc(=O)cc-3oc3cc(O)ccc23)c(C(=O)O)c1)C(N)=O)[C@@H](C)O)[C@@H](C)CC)C(C)(C)C
2,4.7 nM,CC[C@H](C)[C@H](NC(=O)[C@@H](NC(=O)c1cccc(Cl)c1Cl)C(C)(C)C)C(=O)N[C@H](C(=O)N[C@H](C(=O)N[C@H](C(=O)N[C@@H](CCC(N)=O)C(=O)N[C@@H](Cc1c[nH]cn1)C(=O)N[C@H](CC(C)C)C(=O)N[C@@H](Cc1c[nH]cn1)C(=O)NCCC(=O)N[C@@H](CCCCNC(=S)Nc1ccc(-c2c3ccc(=O)cc-3oc3cc(O)ccc23)c(C(=O)O)c1)C(N)=O)[C@@H](C)O)[C@@H](C)CC)C(C)(C)C
3,12 nM,CC[C@H](C)[C@H](NC(=O)[C@@H](NC(=O)c1cccc(Cl)c1Cl)C(C)(C)C)C(=O)N[C@H](C(=O)N[C@H](C(=O)N[C@H](C(=O)N[C@@H](Cc1ccc(O)cc1)C(=O)N[C@H](CCC(=O)O)C(=O)N[C@@H](Cc1ccc(F)cc1)C(=O)N[C@@H](Cc1c[nH]cn1)C(=O)NCCC(=O)N[C@@H](CCCCNC(=S)Nc1ccc(-c2c3ccc(=O)cc-3oc3cc(O)ccc23)c(C(=O)O)c1)C(N)=O)[C@@H](C)O)[C@@H](C)CC)C(C)(C)C
4,9.1 nM,CC[C@H](C)[C@H](NC(=O)[C@@H](NC(=O)c1cccc(Cl)c1Cl)C(C)(C)C)C(=O)N[C@H](C(=O)N[C@H](C(=O)N[C@H](C(=O)N[C@@H](CCC(N)=O)C(=O)N[C@@H](Cc1c[nH]cn1)C(=O)N[C@H](CC(C)C)C(=O)N[C@@H](CO)C(=O)NCCC(=O)N[C@@H](CCCCNC(=S)Nc1ccc(-c2c3ccc(=O)cc-3oc3cc(O)ccc23)c(C(=O)O)c1)C(N)=O)[C@@H](C)O)[C@@H](C)CC)C(C)(C)C
5,> 5400 nM,CC[C@H](C)[C@H](NC(=O)[C@@H](NC(C)=O)C(C)(C)C)C(=O)N[C@H](C(=O)N[C@H](C(=O)N[C@H](C(=O)NCC(=O)N1CCC[C@H]1C(=O)N[C@@H](Cc1c[nH]cn1)C(=O)N[C@@H](CCC(=O)O)C(=O)N[C@@H](CCC(=O)O)C(=O)N[C@@H](Cc1ccc(O)cc1)C(=O)N[C@@H](CCCCNC(=S)Nc1ccc(-c2c3ccc(=O)cc-3oc3cc(O)ccc23)c(C(=O)O)c1)C(N)=O)[C@@H](C)O)[C@@H](C)CC)C(C)(C)C (Ac-[Tle]I[Tle]ITGPHEEYK(X5)-NH2)
6,224 nM,CC[C@H](C)[C@H](NC(=O)[C@@H](NC(=O)c1ccccc1)C(C)(C)C)C(=O)N[C@H](C(=O)N[C@H](C(=O)N[C@H](C(=O)NCC(=O)N1CCC[C@H]1C(=O)N[C@@H](Cc1c[nH]cn1)C(=O)N[C@@H](CCC(=O)O)C(=O)N[C@@H](CCC(=O)O)C(=O)N[C@@H](Cc1ccc(O)cc1)C(=O)N[C@@H](CCCCNC(=S)Nc1ccc(-c2c3ccc(=O)cc-3oc3cc(O)ccc23)c(C(=O)O)c1)C(N)=O)[C@@H](C)O)[C@@H](C)CC)C(C)(C)C (Bz-[Tle]I[Tle]ITGPHEEYK(X5)-NH2)
7,189 nM,CC[C@H](C)[C@H](NC(=O)[C@@H](NC(=O)c1ccc(Br)c(Cl)c1)C(C)(C)C)C(=O)N[C@H](C(=O)N[C@H](C(=O)N[C@H](C(=O)NCC(=O)N1CCC[C@H]1C(=O)N[C@@H](Cc1c[nH]cn1)C(=O)N[C@@H](CCC(=O)O)C(=O)N[C@@H](CCC(=O)O)C(=O)N[C@@H](Cc1ccc(O)cc1)C(=O)N[C@@H](CCCCNC(=S)Nc1ccc(-c2c3ccc(=O)cc-3oc3cc(O)ccc23)c(C(=O)O)c1)C(N)=O)[C@@H](C)O)[C@@H](C)CC)C(C)(C)C (X4-[Tle]I[Tle]ITGPHEEYK(X5)-NH2)
8,74 nM,CC[C@H](C)[C@H](NC(=O)[C@@H](NC(=O)c1ccc(C)c(F)c1F)C(C)(C)C)C(=O)N[C@H](C(=O)N[C@H](C(=O)N[C@H](C(=O)NCC(=O)N1CCC[C@H]1C(=O)N[C@@H](Cc1c[nH]cn1)C(=O)N[C@@H](CCC(=O)O)C(=O)N[C@@H](CCC(=O)O)C(=O)N[C@@H](Cc1ccc(O)cc1)C(=O)N[C@@H](CCCCNC(=S)Nc1ccc(-c2c3ccc(=O)cc-3oc3cc(O)ccc23)c(C(=O)O)c1)C(N)=O)[C@@H](C)O)[C@@H](C)CC)C(C)(C)C (X6-[Tle]I[Tle]ITGPHEEYK(X5)-NH2)
9,32 nM,CC[C@H](C)[C@H](NC(=O)[C@@H](NC(=O)c1cc(F)c(F)c(F)c1F)C(C)(C)C)C(=O)N[C@H](C(=O)N[C@H](C(=O)N[C@H](C(=O)NCC(=O)N1CCC[C@H]1C(=O)N[C@@H](Cc1c[nH]cn1)C(=O)N[C@@H](CCC(=O)O)C(=O)N[C@@H](CCC(=O)O)C(=O)N[C@@H](Cc1ccc(O)cc1)C(=O)N[C@@H](CCCCNC(=S)Nc1ccc(-c2c3ccc(=O)cc-3oc3cc(O)ccc23)c(C(=O)O)c1)C(N)=O)[C@@H](C)O)[C@@H](C)CC)C(C)(C)C (X7-[Tle]I[Tle]ITGPHEEYK(X5)-NH2)
10,64 nM,"CC[C@H](C)[C@H](NC(=O)[C@@H](NC(=O)c1cccc(Cl)c1Cl)C(C)(C)C)C(=O)N[C@H](C(=O)N[C@H](C(=O)N[C@H](C(=O)N[C@@H](CC(=O)O)C(=O)N[C@@H](CCC(N)=O)C(=O)N[C@@H](Cc1ccc(O)cc1)C(=O)N[C@@H](CCCNC(=N)N)C(=O)NCCC(=O)N[C@@H](CCCCNC(=S)Nc1ccc(-c2c3ccc(=O)cc-3oc3cc(O)ccc23)c(C(=O)O)c1)C(N)=O)[C@@H](C)O)[C@@H](C)CC)C(C)(C)C ({Benzoyl(2,3-Cl2)}-[Tle]I[Tle]ITDQYR[βAla]K(X5)-NH2)"
11,41 nM,"CC[C@H](C)[C@H](NC(=O)[C@@H](NC(=O)c1cccc(Cl)c1Cl)C(C)(C)C)C(=O)N[C@H](C(=O)N[C@H](C(=O)N[C@H](C(=O)NCC(=O)N1CCC[C@H]1C(=O)N[C@@H](Cc1c[nH]cn1)C(=O)N[C@@H](CCC(=O)O)C(=O)N[C@@H](CCC(=O)O)C(=O)N[C@@H](Cc1ccc(O)cc1)C(=O)N[C@@H](CCCCNC(=S)Nc1ccc(-c2c3ccc(=O)cc-3oc3cc(O)ccc23)c(C(=O)O)c1)C(N)=O)[C@@H](C)O)[C@@H](C)CC)C(C)(C)C ({Benzoyl(2,3-Cl2)}-[Tle]I[Tle]ITGPHEEYK(X5)-NH2)"

# Further lines, the compound ahead of its results:
row,Compound,Kd
1,CC[C@H](C)[C@H](NC(=O)[C@@H](NC(=O)CNC(=O)[C@H](Cc1c[nH]cn1)NC(=O)[C@@H]1CCCN1C(=O)CNC(C)=O)C(C)(C)C)C(=O)N[C@H](C(=O)N[C@H](C(=O)N[C@H](C(=O)NCC(=O)N1CCC[C@H]1C(=O)N[C@@H](Cc1c[nH]cn1)C(=O)N[C@@H](CCC(=O)O)C(=O)N[C@@H](CCC(=O)O)C(=O)N[C@@H](Cc1ccc(O)cc1)C(=O)N[C@@H](CCCCNC(=S)Nc1ccc(-c2c3ccc(=O)cc-3oc3cc(O)ccc23)c(C(=O)O)c1)C(N)=O)[C@@H](C)O)[C@@H](C)CC)C(C)(C)C (Ac-GPHG[Tle]I[Tle]ITGPHEEYK(X5)-NH2),92 nM
2,CC[C@H](C)[C@H](NC(=O)[C@@H](NC(=O)C1CCCCC1)C(C)(C)C)C(=O)N[C@H](C(=O)N[C@H](C(=O)N[C@H](C(=O)NCC(=O)N1CCC[C@H]1C(=O)N[C@@H](Cc1c[nH]cn1)C(=O)N[C@@H](CCC(=O)O)C(=O)N[C@@H](CCC(=O)O)C(=O)N[C@@H](Cc1ccc(O)cc1)C(=O)N[C@@H](CCCCNC(=S)Nc1ccc(-c2c3ccc(=O)cc-3oc3cc(O)ccc23)c(C(=O)O)c1)C(N)=O)[C@@H](C)O)[C@@H](C)CC)C(C)(C)C (Cyclohexanecarbonyl-[Tle]I[Tle]ITGPHEEYK(X5)-NH2),207 nM
3,CC[C@H](C)[C@H](NC(=O)[C@@H](NC(=O)C1CCCC1)C(C)(C)C)C(=O)N[C@H](C(=O)N[C@H](C(=O)N[C@H](C(=O)NCC(=O)N1CCC[C@H]1C(=O)N[C@@H](Cc1c[nH]cn1)C(=O)N[C@@H](CCC(=O)O)C(=O)N[C@@H](CCC(=O)O)C(=O)N[C@@H](Cc1ccc(O)cc1)C(=O)N[C@@H](CCCCNC(=S)Nc1ccc(-c2c3ccc(=O)cc-3oc3cc(O)ccc23)c(C(=O)O)c1)C(N)=O)[C@@H](C)O)[C@@H](C)CC)C(C)(C)C (Cyclopentanecarbonyl-[Tle]I[Tle]ITGPHEEYK(X5)-NH2),357 nM
4,CC[C@H](C)[C@H](NC(=O)[C@@H](NC=O)C(C)(C)C)C(=O)N[C@H](C(=O)N[C@H](C(=O)N[C@H](C(=O)NCC(=O)N1CCC[C@H]1C(=O)N[C@@H](Cc1c[nH]cn1)C(=O)N[C@@H](CCC(=O)O)C(=O)N[C@@H](CCC(=O)O)C(=O)N[C@@H](Cc1ccc(O)cc1)C(=O)N[C@@H](CCCCNC(=S)Nc1ccc(-c2c3ccc(=O)cc-3oc3cc(O)ccc23)c(C(=O)O)c1)C(N)=O)[C@@H](C)O)[C@@H](C)CC)C(C)(C)C (For-[Tle]I[Tle]ITGPHEEYK(X5)-NH2),> 5800 nM
5,CC[C@H](C)[C@H](NC(=O)[C@@H](NC(=O)[C@@H](NC(=O)[C@@H](NC(=O)[C@@H]1CCCN1C(=O)[C@H](Cc1cnc[nH]1)NC(=O)[C@@H]1CCCN1C(=O)CN)C(C)(C)C)[C@@H](C)CC)C(C)(C)C)C(=O)N[C@H](C(=O)NCC(=O)N1[C@H](C(=O)N[C@@H](Cc2cnc[nH]2)C(=O)N[C@@H](CCC(=O)O)C(=O)N[C@@H](CCC(=O)O)C(=O)O)CSC1(C)C)[C@@H](C)O (H-GPHP[Tle]I[Tle]ITG[X3]HEE-OH),2.6 nM
6,"CC[C@H](C)[C@H](NC(=O)[C@@H](NC(=O)c1c(F)c(F)c(F)c(F)c1F)C(C)(C)C)C(=O)N[C@H](C(=O)N[C@H](C(=O)N[C@H](C(=O)NCC(=O)N1CCC[C@H]1C(=O)N[C@@H](Cc1c[nH]cn1)C(=O)N[C@@H](CCC(=O)O)C(=O)N[C@@H](CCC(=O)O)C(=O)N[C@@H](Cc1ccc(O)cc1)C(=O)N[C@@H](CCCCNC(=S)Nc1ccc(-c2c3ccc(=O)cc-3oc3cc(O)ccc23)c(C(=O)O)c1)C(N)=O)[C@@H](C)O)[C@@H](C)CC)C(C)(C)C ({Benzoyl(2,3,4,5,6-F5)}-[Tle]I[Tle]ITGPHEEYK(X5)-NH2)",77 nM
7,"CC[C@H](C)[C@H](NC(=O)[C@@H](NC(=O)c1cccc(Cl)c1Cl)C(C)(C)C)C(=O)N[C@H](C(=O)N[C@H](C(=O)N[C@H](C(=O)NCCOCCOCC(=O)N[C@@H](CCCCNC(=S)Nc1ccc(-c2c3ccc(=O)cc-3oc3cc(O)ccc23)c(C(=O)O)c1)C(N)=O)[C@@H](C)O)[C@@H](C)CC)C(C)(C)C ({Benzoyl(2,3-Cl2)}-[Tle]I[Tle]IT[AEEA]K(X5)-NH2)",700 nM

# Test: Half life in 25% human serum at 5 uM at 37 degC by HPLC analysis
# Assay type: ADME, cell-free
row,half-life at 5 µM,Compound
1,60 min,CC[C@H](C)[C@H](NC(=O)[C@@H](NC(=O)[C@@H]1CCCN1C(=O)[C@H](Cc1cnc[nH]1)NC(=O)[C@@H]1CCCN1C(=O)CN)C(C)C)C(=O)N[C@H](C(=O)N[C@H](C(=O)N[C@H](C(=O)NCC(=O)N1CCC[C@H]1C(=O)N[C@@H](Cc1cnc[nH]1)C(=O)N[C@@H](CCC(=O)O)C(=O)N[C@@H](CCC(=O)O)C(=O)O)[C@@H](C)O)[C@@H](C)CC)C(C)C
2,360 min,CC[C@H](C)[C@H](NC(=O)[C@@H](NC(=O)[C@@H](NC(=O)[C@@H](NC(=O)[C@@H]1CCCN1C(=O)[C@H](Cc1cnc[nH]1)NC(=O)[C@@H]1CCCN1C(=O)CN)C(C)(C)C)[C@@H](C)CC)C(C)(C)C)C(=O)N[C@H](C(=O)NCC(=O)N1[C@H](C(=O)N[C@@H](Cc2cnc[nH]2)C(=O)N[C@@H](CCC(=O)O)C(=O)N[C@@H](CCC(=O)O)C(=O)O)CSC1(C)C)[C@@H](C)O (H-GPHP[Tle]I[Tle]ITG[X3]HEE-OH)
